Results reported in the CheMixHub viscosity set.
Where “and” joins values, the source holds several entries; their conditions need not be identical. Equal values may be shown once.

Assay: xn = mol fraction of the nth substance listed

NCCO + CN1CCCC1=O
viscosity [mPa·s], 101 kPa
Details	293.15 K	298.15 K	303.15 K	308.15 K	313.15 K	318.15 K	323.15 K
x1 = 0.1558	2.99	2.712	2.484	2.293	2.133	1.996	–
x1 = 0.3001	3.547	3.176	2.869	2.612	2.397	2.218	2.065
x1 = 0.4204	4.72	4.121	3.633	3.236	2.909	2.638	2.415
x2 = 0.2076	–	–	10.07	–	6.755	–	5.018
x2 = 0.4003	–	–	6.647	–	4.811	–	3.622
x2 = 0.5994	–	–	4.361	–	3.317	–	2.559
x2 = 0.7992	–	–	2.604	–	2.118	–	1.799

OCc1ccccc1 + C1COCCO1
viscosity [mPa·s], 101 kPa
Details	x1 = 0.201	x1 = 0.2986	x1 = 0.4001	x1 = 0.4991	x1 = 0.7017	x1 = 0.9009
303.15 K	1.398	1.609	1.842	2.149	2.975	4.03
308.15 K	1.288	1.456	1.679	1.92	2.615	3.54
313.15 K	1.178	1.385	1.553	1.797	2.387	3.199

OCc1ccccc1 + c1ccccc1
Details	viscosity
293.15 K, 101.32 kPa, x1 = 0.03068	0.6725 mPa·s
293.15 K, 101.32 kPa, x1 = 0.04509	0.6903 mPa·s
293.15 K, 101.32 kPa, x1 = 0.1059	0.7825 mPa·s
293.15 K, 101.32 kPa, x1 = 0.1545	0.8652 mPa·s
293.15 K, 101.32 kPa, x1 = 0.1997	0.9735 mPa·s
298.15 K, 101.33 kPa, x1 = 0.1	0.7 mPa·s
298.15 K, 101.33 kPa, x1 = 0.2	0.855 mPa·s and 0.855 mPa·s
298.15 K, 101.33 kPa, x1 = 0.5	1.712 mPa·s and 1.712 mPa·s
298.15 K, 101.33 kPa, x1 = 0.8	3.267 mPa·s
303.15 K, 101 kPa, x1 = 0.1079	0.8732 mPa·s
303.15 K, 101 kPa, x1 = 0.2167	1.03 mPa·s
303.15 K, 101 kPa, x1 = 0.3472	1.291 mPa·s
303.15 K, 101 kPa, x1 = 0.4657	1.601 mPa·s
303.15 K, 101 kPa, x1 = 0.5516	1.877 mPa·s
303.15 K, 101 kPa, x1 = 0.6577	2.306 mPa·s
303.15 K, 101 kPa, x1 = 0.7244	2.653 mPa·s
303.15 K, 101 kPa, x1 = 0.868	3.594 mPa·s
303.15 K, 101 kPa, x1 = 0.9178	3.983 mPa·s
308.15 K, 101.33 kPa, x1 = 0.1	0.597 mPa·s
308.15 K, 101.33 kPa, x1 = 0.2	0.714 mPa·s
308.15 K, 101.33 kPa, x1 = 0.5	1.379 mPa·s
308.15 K, 101.33 kPa, x1 = 0.8	2.433 mPa·s
318.15 K, 101.33 kPa, x1 = 0.1	0.526 mPa·s
318.15 K, 101.33 kPa, x1 = 0.2	0.617 mPa·s
318.15 K, 101.33 kPa, x1 = 0.5	1.139 mPa·s
318.15 K, 101.33 kPa, x1 = 0.8	1.904 mPa·s
323.15 K, 101.33 kPa, x1 = 0.1	0.493 mPa·s
323.15 K, 101.33 kPa, x1 = 0.2	0.578 mPa·s and 0.575 mPa·s
323.15 K, 101.33 kPa, x1 = 0.5	1.026 mPa·s and 1.026 mPa·s
323.15 K, 101.33 kPa, x1 = 0.8	1.695 mPa·s

NCCO + CCO
viscosity [mPa·s], 100 kPa
Details	x1 = 0.1	x1 = 0.2	x1 = 0.3	x1 = 0.4	x1 = 0.5	x1 = 0.6	x1 = 0.7	x1 = 0.8	x1 = 0.9
303.15 K	1.33	1.73	2.3	3.05	–	5.37	7.03	–	11.6
313.15 K	1.11	1.42	1.83	2.34	3.05	3.93	5.03	6.32	7.87
323.15 K	0.967	1.19	1.47	1.85	2.34	2.95	3.7	4.54	5.57

CCC(C)CC(C)C (configuration not stated) + C1C[C@@H]2[C@H]3CC[C@H](C3)[C@@H]2C1
viscosity [mPa·s], 100 kPa
Details	x2 = 0.1017	x2 = 0.2008	x2 = 0.3005	x2 = 0.4002	x2 = 0.5006	x2 = 0.6001	x2 = 0.7001	x2 = 0.8012	x2 = 0.8999
293.15 K	0.538	0.616	0.717	0.847	1.007	1.216	1.478	1.84	2.322
298.15 K	0.511	0.582	0.674	0.792	0.937	1.126	1.361	1.685	2.114
303.15 K	0.487	0.552	0.636	0.744	0.876	1.048	1.261	1.552	1.937
308.15 K	0.465	0.524	0.602	0.7	0.822	0.979	1.171	1.435	1.781
313.15 K	0.445	0.5	0.571	0.662	0.772	0.916	1.092	1.331	1.645

c1ccc(-c2ccccc2)cc1 + c1ccccc1
298.15 K, 101 kPa
Details	viscosity [mPa·s]
x1 = 0.1006	0.7585
x1 = 0.1824	0.9014
x1 = 0.3638	1.298

CC(C)(C)C1CCCCC1 + CCCCCCCCCCCC
viscosity [mPa·s], 102 kPa
Details	x1 = 0.1003	x1 = 0.2004	x1 = 0.3011	x1 = 0.4005	x1 = 0.5001	x1 = 0.601	x1 = 0.7001	x1 = 0.8003	x1 = 0.8991
293.15 K	1.5	1.5	1.5	1.51	1.53	1.54	1.57	1.6	1.64
303.15 K	1.26	1.26	1.27	1.27	1.28	1.3	1.32	1.34	1.38
313.15 K	1.07	1.07	1.08	1.09	1.09	1.11	1.13	1.15	1.17
323.15 K	0.92	0.925	0.933	0.939	0.946	0.958	0.975	0.992	1.01

COC(=O)CCCCC(=O)OC + CCC(C)=O
100 kPa
Details	viscosity [mPa·s]
308.15 K, x1 = 0.2002	0.5865
318.15 K, x1 = 0.3002	0.6465
323.15 K, x1 = 0.4004	0.7425

c1ccc(-c2ccccc2)cc1 + CCCCCOC(C)=O
298.15 K, 101 kPa
Details	viscosity [mPa·s]
x1 = 0.0249	0.803
x1 = 0.0367	0.8121

C1CCCC1 + CCC(C)=O
viscosity [mPa·s], 101.33 kPa
Details	293.15 K	298.15 K	303.15 K
x1 = 0.0472	0.397	0.377	0.358
x1 = 0.0981	0.395	0.375	0.358
x1 = 0.1929	0.394	0.372	0.354
x1 = 0.2932	0.39	0.37	0.353
x1 = 0.3753	0.39	0.37	0.352
x1 = 0.4966	0.393	0.373	0.354
x1 = 0.6189	0.394	0.374	0.355
x1 = 0.6838	0.398	0.377	0.359
x1 = 0.8034	0.407	0.387	0.367
x1 = 0.9061	0.419	0.397	0.377
x1 = 0.9499	0.426	0.405	0.383
